This passage reports EC50, IC50 and CC50 results from ChEMBL document CHEMBL1156602, “Synthesis and antiviral properties of some polyphenols related to Salvia genus” (Bioorg Med Chem Lett, 2008).

In general, pIC50 refers to the IC50 on a negative log10 scale, so that one unit is a factor of ten.

For data set [1], the system named is Human immunodeficiency virus 1. As to the kind of experiment: Antiviral activity against HIV1 in MT4 cells assessed as inhibition of virus-induced cytopathic effect by MTT assay. The class given is functional, organism-based. The conditions noted are these: Human immunodeficiency virus 1, MT4. (Damage to the host cells serves as the signal in cytopathic effect assays.)

The target of data set [2] is T1, Human immunodeficiency virus type 1 integrase (Human immunodeficiency virus 1, UniProt Q7ZJM1). Description: Inhibition of HIV1 integrase by overall integration assay.
Data set [3] deals with T1, Human immunodeficiency virus type 1 integrase. As to the kind of experiment: Inhibition of HIV1 integrase strand transfer activity.
Data set [4] in a line: Cytotoxicity against human MT4 cells by MTT assay. It is filed as cell-based. A general note: Tetrazolium dyes change colour on reduction, which living cells bring about.
The nature of data set [5]: Cytotoxicity against human MT2 cells after 48 hrs. The settings on record: read-out: LD50. The class given is cell-based.
For data set [6], the system named is Human immunodeficiency virus 1. As to the kind of experiment: Antiviral activity against HIV1 LAI in MT2 cells assessed as inhibition of virus-induced cytopathic effect. It is filed as functional. The settings on record: Human immunodeficiency virus 1, LAI, read-out: ED50 (the source's name).
Data set [7] has as its target T1, Human immunodeficiency virus type 1 integrase. Description: Inhibition of HIV1 integrase catalyzed reactions.
The target is the same in data set [8]. Description: Inhibition of HIV1 integrase in presence of Mn2+.

pEC50, pIC50: −log10 of the molar value.

T1 sequence (Q7ZJM1 whole entry): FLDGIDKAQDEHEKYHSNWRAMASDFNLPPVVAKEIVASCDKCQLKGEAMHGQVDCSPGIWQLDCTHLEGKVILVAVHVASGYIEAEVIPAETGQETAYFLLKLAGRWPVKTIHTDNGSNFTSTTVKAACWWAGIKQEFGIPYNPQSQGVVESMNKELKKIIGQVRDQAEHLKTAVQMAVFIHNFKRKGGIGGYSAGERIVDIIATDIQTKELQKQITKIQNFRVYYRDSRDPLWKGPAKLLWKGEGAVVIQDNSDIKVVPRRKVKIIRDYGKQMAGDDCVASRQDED

As to `O=C(O)/C=C/c1ccc(O)c2c1C1C(=O)c3cc(O)c(O)cc3C1O2` (racemic), in data set [1], the pEC50 is < 4.63. Further, the pIC50 was 6.82 in data set [2] and 6.52 in data set [3]. Also, the CC50 in data set [4] was determined as 23300 nM.

For `O=C(/C=C/c1ccc(O)c(O)c1)O[C@@H]1C[C@](O)(C(=O)O)C[C@@H](OC(=O)/C=C/c2ccc(O)c(O)c2)[C@H]1O`, in data set [5], the CC50 at 48 h came out at 300000 nM. Besides, the pEC50 in data set [6] is 5.72. In data set [7], the negative logarithm of the IC50 (pIC50) was 6.19.

As to `O=C(O)/C=C/c1ccc(O)c(O)c1` [CAFFEIC ACID], the pIC50 in data set [2] was 5.55; in data set [3] it was 4.62; in data set [8], 5.55.

Regarding `O=C(O)/C=C/c1ccc(O)c(O)c1CC(=O)O`, the pEC50 in data set [1] is < 4.36. The pIC50 was 5.87 in data set [2] and 5.96 in data set [3]. Besides, in data set [4], the CC50 is 44000 nM.

`O=C(O)/C=C/c1ccc(O)c(O)c1/C(=C/c1ccc(O)c(O)c1)C(=O)O`: the pEC50 in data set [1] is < 5.35. Besides, the pIC50 was 6.25 in data set [2] and 6.14 in data set [3]. The same molecule came in with a CC50 in data set [4] of 4500 nM.

Turning to `O=C(/C=C/c1ccc(O)c(O)c1)O[C@@H](C(=O)O)[C@@H](OC(=O)/C=C/c1ccc(O)c(O)c1)C(=O)O` [CICHORIC ACID], in data set [5], the CC50 at 48 h was 700000 nM.
